Source: ChEMBL document CHEMBL2073824, “Mechanism of the pharmacokinetic interaction between methotrexate and benzimidazoles: potential role for breast cancer resistance protein in clinical drug-drug interactions” (Cancer Res, 2004)

Legend:
[1] = target: T1, Broad substrate specificity ATP-binding cassette transporter ABCG2 (Homo sapiens, UniProt Q9UNQ0); test: TP_TRANSPORTER: inhibition of MTX uptake in membrane vesicle from BCRP-expressing Sf9 cell; format: functional, cell membranes
T1 sequence (Q9UNQ0 whole entry): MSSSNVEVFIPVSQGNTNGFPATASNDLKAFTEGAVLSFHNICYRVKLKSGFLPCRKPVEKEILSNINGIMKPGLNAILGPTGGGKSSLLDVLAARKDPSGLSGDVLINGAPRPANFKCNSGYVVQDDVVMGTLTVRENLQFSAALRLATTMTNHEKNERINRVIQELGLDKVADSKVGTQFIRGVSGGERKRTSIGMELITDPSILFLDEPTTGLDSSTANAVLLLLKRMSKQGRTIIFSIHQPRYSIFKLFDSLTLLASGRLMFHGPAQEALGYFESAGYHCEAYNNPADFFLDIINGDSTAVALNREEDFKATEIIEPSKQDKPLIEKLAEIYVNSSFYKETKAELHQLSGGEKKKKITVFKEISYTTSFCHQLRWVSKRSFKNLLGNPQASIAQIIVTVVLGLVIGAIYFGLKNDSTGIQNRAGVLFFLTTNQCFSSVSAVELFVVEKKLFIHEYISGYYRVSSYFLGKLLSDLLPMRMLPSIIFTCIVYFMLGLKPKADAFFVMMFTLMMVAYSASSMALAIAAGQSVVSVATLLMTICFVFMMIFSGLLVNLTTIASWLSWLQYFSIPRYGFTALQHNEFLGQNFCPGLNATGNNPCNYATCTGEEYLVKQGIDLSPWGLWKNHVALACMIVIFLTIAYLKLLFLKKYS

[2] = target: T2, Broad substrate specificity ATP-binding cassette transporter ABCG2 (Mus musculus, UniProt Q7TMS5); test: TP_TRANSPORTER: transepithelial transport in Bcrp-expressing MDCKII cells; format: functional, cell-based; settings: dog, mdck-ii
T2 sequence (Q7TMS5 whole entry): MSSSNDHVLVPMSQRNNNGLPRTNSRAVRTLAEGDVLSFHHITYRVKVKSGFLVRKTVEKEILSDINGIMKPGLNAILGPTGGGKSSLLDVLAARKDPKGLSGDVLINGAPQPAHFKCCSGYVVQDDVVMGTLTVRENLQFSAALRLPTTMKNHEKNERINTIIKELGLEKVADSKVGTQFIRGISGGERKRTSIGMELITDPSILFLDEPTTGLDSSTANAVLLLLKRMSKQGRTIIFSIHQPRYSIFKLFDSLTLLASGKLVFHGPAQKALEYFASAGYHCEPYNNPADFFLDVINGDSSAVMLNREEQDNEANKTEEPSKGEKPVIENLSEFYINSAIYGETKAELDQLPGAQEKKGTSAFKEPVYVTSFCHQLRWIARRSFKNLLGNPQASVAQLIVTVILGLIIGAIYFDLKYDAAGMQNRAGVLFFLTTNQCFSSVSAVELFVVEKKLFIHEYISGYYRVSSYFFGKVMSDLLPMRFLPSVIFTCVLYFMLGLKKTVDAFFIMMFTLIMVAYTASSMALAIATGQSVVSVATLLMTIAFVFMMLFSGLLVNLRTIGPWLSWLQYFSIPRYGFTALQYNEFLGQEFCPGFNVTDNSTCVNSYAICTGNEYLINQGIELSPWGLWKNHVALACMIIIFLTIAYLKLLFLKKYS

[3] = target: T1, Broad substrate specificity ATP-binding cassette transporter ABCG2; test: TP_TRANSPORTER: uptake in membrane vesicle from BCRP-expressing Sf9 cells; format: functional, cell membranes

COc1ccc2[nH]c([S+]([O-])Cc3ncc(C)c(OC)c3C)nc2c1 (stereo not given) [OMEPRAZOLE]
IC50 ([1]; sf9): inhibitor [IC50=10-50uM]

COc1ccnc(C[S+]([O-])c2nc3ccc(OC(F)F)cc3[nH]2)c1OC (stereo not given) [PANTOPRAZOLE]
IC50 ([1]; read-out: IC50): 10 µM | Km [2]: substrate [Km=0.1-0.2mM]

CC[C@@]1(O)C(=O)OCc2c1cc1n(c2=O)Cc2cc3c(CN(C)C)c(O)ccc3nc2-1 [TOPOTECAN]
Activity [2]: substrate []

CN(Cc1cnc2nc(N)nc(N)c2n1)c1ccc(C(=O)N[C@@H](CCC(=O)O)C(=O)O)cc1 [METHOTREXATE]
Activity [3]: substrate []
